Entries after “also recorded” stand apart in the source; their conditions may differ. Marks after values point to notes of the source that are not given here.
Assays:
Type in all cases: in vivo, mouse
TgCRND8 mice [1] = assay: Cerebral amyloid plaque burden (anti-Aβ immunostaining, image analysis); settings: for amyloid burden in hippocampus and cerebral cortex: TgCRND8 mice at six months of age
Experimental: Cerebral amyloid burden. […] To generate sets of systematic uniform random sections, 5 μm serial sections were collected across the entire hemisphere. Sets of sections at 50 μm intervals were used for analyses (10-14 sections/set). Plaques were identified after antigen retrieval with formic acid, and incubation with primary anti-Aβ antibody (Dako M-0872), followed by secondary antibody (Dako StreptABCcomplex/horseradish kit). End products were visualized with DAB and were counter-stained with luxol fast blue. Amyloid plaque burden was assessed with Leco IA-3001 image analysis software interfaced with Leica microscope and Hitachi KP-M1U CCD video camera. Openlab imaging software (Improvision, Lexington, Mass.) was then used to convert micrographs to binary images for plaque number and plaque area determinations. Vascular amyloid burden was defined as amyloid originating from or surrounding blood vessels and was analysed similarly. Cerebral Aβ burden. […] Sets of sections at […] intervals for analyses (10-14 sections per set) were used. Plaques with primary Aβ-specific antibody (Dako M-0872) were identified and visualized with DAB. AP plaque burden was assessed with Openlab imaging software (Improvision) and used to convert micrographs to binary images for determinations of plaque number and plaque area. Vascular Aβ burden was defined as Aβ plaques originating from or surrounding blood vessels and was analyzed similarly. Cerebral Aβ burden. […] To generate sets of systematic uniform random sections, 5 μm serial sections were collected across the entire hemisphere. Sets of sections at 50 μm intervals were used for analyses (10-14 sections/set). Plaques were identified after antigen retrieval with formic acid, and incubation with primary anti-Aβ antibody (Dako M-0872), followed by secondary antibody (Dako StreptABCcomplex/horseradish kit). End products were visualized with DAB and were counter-stained with luxol fast blue. Aβ plaque burden was assessed with Leco IA-3001 image analysis software interfaced with Leica microscope and Hitachi KP-M1U CCD video camera. Openlab imaging software (Improvision, Lexington, Mass.) was then used to convert micrographs to binary images for plaque number and plaque area determinations. Vascular Aβ burden was defined as Aβ plaques originating from or surrounding blood vessels and was analyzed similarly.

TgCRND8 mice [2] = assay: Morris water maze spatial reference memory test; settings: for spatial learning performance compared with non-Tg littermates / spatial learning performance compared with untreated TgCRND8 littermates: 28 days of treatment from 5 months of age, tested at 6 months
Experimental: Behavioural tests: Morris Water Maze testing was performed as previously described. After non-spatial pre-training, mice underwent place discrimination training for 5 days with 4-trials per day, followed by a cued visible platform to rule out general motivational, learning deficits and motor problems, and a probe trial to evaluate memory. […] Open field test for motor activity was preformed as described previously. Duration of walking, pausing and grooming were analyzed as indices of spontaneous locomotor activity. Sensorimotor function was examined with an EconomexTM accelerating rotarod (Columbus Instruments, Columbus, Ohio), as described elsewhere. The rod was set to accelerate at a rate of 0.2 r.p.m./s, from an initial, constant speed of 5 r.p.m. Latency to fall was recorded in four daily trials, conducted at 30 min intervals. All mice were trained for seven days before testing. The test day performance score for each animal was obtained by summing its latency to fall over the four trials Behavioral tests. Morris water maze testing was carried out as previously described. After nonspatial pretraining, mice underwent place discrimination training for 5 d with four trials per day, followed by a cued visible platform trial and a probe trial. An open-field test for motor activity was carried out as described previously. Sensorimotor function was assessed with an Economex accelerating rotarod (Columbus Instruments) as previously described. Behavioural tests. Morris Water Maze testing was performed as previously described. After non-spatial pre-training, mice underwent place discrimination training for 5 days with 4-trials per day, followed by a cued visible platform to rule out general motivational, learning deficits and motor problems, and a probe trial to evaluate memory. The probe trial was conducted at 72 h after the last testing, and used an annulus-crossing index to assess spatial recall. The annulus-crossing index measures the number of passes over the original platform position relative to passes over the other three quadrants. […] Open field test for motor activity was performed as described previously

TgCRND8 mice [3] = assay: Gliosis quantitation (GFAP astrocytes, CD68 microglia); settings: prophylactic treatment; for astrogliosis (percent brain area covered): 4 and 6 months of age; for microgliosis / microglial activation (percent brain area covered): 6 months of age
Experimental: Gliosis Quantitation. Five randomly selected, evenly spaced, sagittal sections were collected from paraformaldehyde-fixed and frozen hemispheres of treated and control mice. Sections were immunolabelled for astrocytes with anti-rat GFAβ IgG2a (Dako; diluted 1:50) and for microglia with anti-rat CD68 IgG2b (Dako; 1:50). Digital images were captured using a Coolsnap digital camera (Photometrics, Tuscon, Ariz.) mounted to a Zeiss, Axioscope 2 Plus microscope. Images were analysed using Openlab 3.08 imaging software (Improvision, Lexington Mass.). Quantification of gliosis. Five randomly selected, evenly spaced sagittal sections from paraformaldehyde-fixed and frozen hemispheres of treated and control mice were collected. Sections were immunolabeled for astrocytes with an antibody against rat GFAβ IgG2a (Dako; diluted 1:50) and for microglia with an antibody to rat CD68 IgG2b (Dako; 1:50). Digital images were captured using a Coolsnap digital camera (Photometrics) mounted to a Zeiss, Axioscope 2 Plus microscope. Images were analyzed using Openlab 3.08 imaging software (Improvision).

TgCRND8 mice [4] = assay: Survival census (Kaplan-Meier); settings: prophylactic treatment, vs untreated, n=35 per group
Experimental: (§1) Survival Census: The probability of survival was assessed by the Kaplan-Meier technique, computing the probability of survival at every occurrence of death, thus making it suitable for small sample sizes. For the analyses of survival, 35 mice were used for each treatment group. The Tarone-Ware test was used to assess effects of treatments.
as §1, with “census.” for “Census:”, “using” for “by”

[5] = 1 month Treatment: TgCRND8 mice, oral from 5 to 6 months of age
[6] = 4-month Prophylactic: TgCRND8 mice, oral from 6 weeks to 4 months of age
[7] = 6-month Prophylactic: TgCRND8 mice, oral from 6 weeks to 6 months of age
[8] = TgCRND8 mice treated for 2 months, ending at 7 months of age
[9] = TgCRND8 mice with pre-existing disease, 28 days from 5 months of age
[10] = TgCRND8 mice, 28 day course at 5 months of age, vs untreated
[11] = TgCRND8 mice, oral, 28 days from 5 months of age, analysed at 6 months
[12] = listed as scyllocyclohexanehexol
[13] = prophylactic, 6 weeks to 4 months of age
[14] = prophylactic, 6 weeks to 6 months of age

OC1C(O)C(O)C(O)C(O)C1O (stereo not shown) [scyllo-cyclohexanehexol, 1,3,5/2,4,6-(scyllo-) cyclohexanehexol]
Mean Plaque Size (μm^2) (TgCRND8 mice [1]; [5]): 336 ± 6* μm^2
Total Plaque Area (μm^2) (TgCRND8 mice [1]; [5]): 420027 ± 14986* μm^2
Mean Plaque Size (μm^2) (TgCRND8 mice [1]; [6]): 103 ± 4* μm^2
Total Plaque Area (μm^2) (TgCRND8 mice [1]; [6]): 63847 ± 2895 μm^2
Mean Plaque Size (μm^2) (TgCRND8 mice [1]; [7]): 339 ± 10† μm^2
Total Plaque Area (μm^2) (TgCRND8 mice [1]; [7]): 262379 ± 5373† μm^2
amyloid burden in hippocampus and cerebral cortex (TgCRND8 mice [1]): significantly decreased amyloid burden
amyloid burden in hippocampus and cerebral cortex (TgCRND8 mice [1]; listed as AZD-103): significantly decreased amyloid burden
effect on pathology (TgCRND8 mice [1]; [8]): Sustained effects
percent area of the brain covered with plaques (TgCRND8 mice [1]; [9]): significantly reduced
plaque number (TgCRND8 mice [1]; [9]): significantly reduced
plaque size (TgCRND8 mice [1]; [9]): significantly reduced
plaque count, dose-response (TgCRND8 mice [1]; TgCRND8 mice, 0.3-30 mg/kg/d orally, 4 months of age, 6F3D immunostaining): dose-dependent decrease; also recorded: improvement
percent area of the brain covered by plaques, reduction (TgCRND8 mice [1]; [10]): 14±0.5 % reduction
plaque number reduction (TgCRND8 mice [1]; [10]): 13±0.3 % reduction
plaque size reduction (TgCRND8 mice [1]; [10]): 16±0.4 % reduction
plaque burden in hippocampus (TgCRND8 mice [1]; TgCRND8 mice, one month of treatment from 5 months of age): lower plaque burden
Mean Plaque Size (μm^2) (TgCRND8 mice [1]; [11]): 336 ± 6* μm^2
Total Plaque Area (μm^2) (TgCRND8 mice [1]; [11]): 420027 ± 14986* μm^2
Total Plaque Count (TgCRND8 mice [1]; [11]): 1260 ± 27
mean plaque size (TgCRND8 mice [1]; TgCRND8 mice, prophylactic, 6 months of age): smaller mean plaque size
all measures of plaque burden (TgCRND8 mice [1]; TgCRND8 mice, prophylactic, at 4 and 6 months of age): sustained decrease in all measures of plaque burden
spatial learning performance compared with non-Tg littermates (TgCRND8 mice [2]): indistinguishable from that of their non-Tg littermates; also recorded: indistinguishable from nontransgenic littermates
spatial learning performance compared with untreated TgCRND8 littermates (TgCRND8 mice [2]): significantly better behavioural performance compared to untreated TgCRND8 mice; also recorded: significantly better than untreated TgCRND8 littermates
spatial learning performance compared with non-Tg littermates (TgCRND8 mice [2]; listed as AZD-103): indistinguishable from non-Tg littermates
spatial learning performance compared with untreated TgCRND8 littermates (TgCRND8 mice [2]; listed as AZD-103): significantly better than untreated TgCRND8 littermates
spatial learning performance compared with non-Tg littermates (TgCRND8 mice [2]; [12]): indistinguishable from nontransgenic littermates
spatial learning performance compared with untreated TgCRND8 littermates (TgCRND8 mice [2]; [12]): improved behavioral performance
effect on cognition (TgCRND8 mice [2]; [8]): Sustained effects
spatial memory, dose-response (TgCRND8 mice [2]; TgCRND8 mice, 0.3-30 mg/kg/d orally, tested at 4 months of age): dose-dependent improvement
cognitive performance compared with non-Tg mice (TgCRND8 mice [2]; [13]): approached that of nontransgenic mice
cognitive performance compared with untreated TgCRND8 mice (TgCRND8 mice [2]; [13]): significant behavioral improvement
cognitive performance compared with non-Tg mice (TgCRND8 mice [2]; prophylactic, 6 weeks to 4 months of age, listed as AZD-103): approached that of non-Tg mice
cognitive performance compared with non-Tg mice (TgCRND8 mice [2]; prophylactic, 6 weeks to 4 months of age, listed as Scyllo-cyclohexanehexol): indistinguishable from nontransgenic littermates on days 4 and 5 of testing
cognitive performance compared with non-Tg littermates (TgCRND8 mice [2]; [14]): indistinguishable from nontransgenic littermates; also recorded: approached that of nontransgenic littermates
cognitive performance compared with untreated TgCRND8 mice (TgCRND8 mice [2]; [14]): significantly better cognitive function compared to untreated TgCRND8 littermates
astrogliosis (percent brain area covered) (TgCRND8 mice [3]): decreased astrogliosis much more efficiently
astrogliosis (percent brain area covered) (TgCRND8 mice [3]; listed as AZD-103): decreased the astrogliotic response to a greater extent; also recorded: significantly decreased
astrogliosis (percent brain area covered) (TgCRND8 mice [3]; listed as Scyllo-cyclohexanehexol): decreased the astrogliotic response to a greater extent than epi-cyclohexanehexol; also recorded: significantly decreased
microgliosis / microglial activation (percent brain area covered) (TgCRND8 mice [3]): attenuated microglial activation; also recorded: decreased the percent brain area covered with microgliosis
microgliosis / microglial activation (percent brain area covered) (TgCRND8 mice [3]; listed as AZD-103): decreased the percent brain area covered with microgliosis
survival (Kaplan-Meier cumulative survival) (TgCRND8 mice [4]): accelerated mortality was reversed; also recorded: increased survival
survival (Kaplan-Meier cumulative survival) (TgCRND8 mice [4]; listed as AZD-103): increased survival

From patent US20070197452A1, “Treatment of amyloid-related diseases” (priority 2006, published 2007)
